The values that follow come from patent US8440652B2, “MST1 kinase inhibitors and methods of their use” (Lexicon Pharmaceuticals, Inc., priority 2011, dated 2013).

Like-named read-outs stand apart in the source and are kept apart here.

The target in one experiment is T1, MST1 (Homo sapiens, UniProt Q13043).
T1 sequence (Q13043 1-487): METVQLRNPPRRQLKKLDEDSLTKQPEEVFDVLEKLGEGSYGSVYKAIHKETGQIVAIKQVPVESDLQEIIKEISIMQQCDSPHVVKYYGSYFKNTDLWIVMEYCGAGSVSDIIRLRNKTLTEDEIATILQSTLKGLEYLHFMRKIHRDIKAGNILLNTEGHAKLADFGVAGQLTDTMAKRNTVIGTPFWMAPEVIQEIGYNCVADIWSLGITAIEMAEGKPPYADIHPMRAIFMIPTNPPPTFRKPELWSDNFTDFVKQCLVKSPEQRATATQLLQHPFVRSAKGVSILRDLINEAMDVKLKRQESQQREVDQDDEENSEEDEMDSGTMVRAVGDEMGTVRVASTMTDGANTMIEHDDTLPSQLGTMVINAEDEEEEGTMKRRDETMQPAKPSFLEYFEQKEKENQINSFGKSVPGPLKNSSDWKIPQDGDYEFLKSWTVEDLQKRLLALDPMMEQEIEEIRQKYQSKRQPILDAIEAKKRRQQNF
Kind of experiment: In vitro measurement of MST1 inhibition (Z′-Lyte kinase assay). The class given is biochemical.

For a further experiment, the system named is rat EAE model. Kind of experiment: Rat EAE disease model. Type of experiment: in vivo.
Experiment [1] concerns Con-A induced hepatitis model. Kind of experiment: Con-A induced hepatitis model. The class given is in vivo, mouse. As to the method: This model was generally conducted as follows. C57Bl/6-Albino/129SvEv mice were injected intravenously (i/v) via the lateral tail vein with a single sublethal dose of Concanavalin A from Canavalia ensiformis (Jack bean, Type IV-S, lyophilized powder, aseptically processed; Sigma) administered at 10-16 mg/kg mouse body weight in a total volume of 0.1-0.3 ml of pyrogen-free PBS. The tail vein injections of mice restrained in a Plexiglas mouse restrainer were performed without anesthesia, using a 1 ml syringe with a 27 gauge needle. At six and 24 hr post-injection, blood samples were collected by retro-orbital bleeding. The animals were sacrificed and sera from the blood samples were analyzed for the presence of IL-12, TNF-α, MCP-1, IFN-γ, IL-10, and IL-6 using a mouse inflammation cytometric bead array (CBA) kit (BD Biosciences, Mountain View, Calif.), according to the manufacturer's instructions. Data were acquired with a FACSCalibur flow cytometer and analyzed with BD CBA Software (BD Biosciences). Biochemical markers of liver failure were assessed by measuring serum liver damage enzymes, aspartate aminotransferase (AST) and alanine aminotransferase (ALT), using a standard clinical biochemical analyzer. Livers of ConA-treated mice were sectioned and stained with H&E to evaluate the degree of T cell-mediated immune inflammation.

In a further experiment the test system is mouse EAE model. Kind of experiment: Mouse EAE disease model. Type of experiment: in vivo. The note with it: mice, subcutaneous dosing, 3 mg/kg, 10 mg/kg BID 12 days from Day 9 after MOG immunization; FIG. 9A. As to the method: Here, an adaptation of the method of Bettelli, et al., J. Immunol. 161:3299 (1998) was implemented. Eight to 12 weeks old C57Bl/6-Albino/129SvEv littermates were immunized subcutaneously with a total of 300 μg MOGp35-55 peptide ([…]) emulsified in complete Freund's adjuvant (CFA) containing 250 μg heat-inactivated Mycobacterium tuberculosis H37 Ra (Difco Laboratories). The antigen was divided equally across two injection sites in the abdominal flanks. Immediately following the injection of the emulsified antigen (day 0), each mouse received one intravenous injection of 500 ng of Pertussis toxin (List Biological Laboratories). Animal weights were recorded prior to the start of the experiment and monitored throughout the experiment, 2-3 times per week. Disease severity was scored on a scale as follows: 0=asymptomatic, no detectable sign of disease; 1=slight weakness of the tail/floppy tail and/or slumped hindquarters; 2=definite total paralysis of the tail; 3=mild waddle/distorted gait and total paralysis of the tail and/or mild impaired righting reflex; 4=heavy waddle with impaired control-weakness of hind limbs and/or impaired righting reflex; 5=paralysis of one of the hind limbs possibly with mild forelimb weakness; 6=paralysis of both hind limbs and/or moderate to severe forelimb weakness; 7=quadriplegia/paralysis of all limbs—hind and fore; 8=moribund/dead. […]

A further experiment deals with mouse CIA disease model. Kind of experiment: Mouse CIA disease model. The class given is in vivo. The note with it: mice, 10, 30, 100 mg/kg PO bid 21 days from Day 20 after immunization; FIG. 4. On the procedure: Eight to 16 weeks old DBA/1 mice were immunized intradermally (i.d.) at several sites into the base of the tail with 100 μg of chicken type II collagen (CII; Sigma Chemical Co.) in Freund's complete adjuvant (CFA; Difco, Detroit, Mich.) containing 2.5 mg/ml M. tuberculosis, followed by a repeat booster i.d. injection of CII (100 μg emulsified in CFA) given 3 weeks after the primary immunization. Mice were monitored daily for signs of arthritis, and disease severity scores were assessed by a visual scoring of 0 to 4 according to the following scale: 0=no erythema and swelling; 1=erythema and mild swelling of the mid-foot or ankle joint; 2=erythema and mild swelling extending from the ankle to the mid-foot; 3=erythema and moderate swelling extending from the ankle to the metatarsal joints; 4=erythema and severe swelling of the ankle, foot, and digits. Total disease severity scores were recorded as a sum of visual scores for four limbs. In addition to visual scoring, paw thickness was measured with a micrometer caliper.

Another experiment concerns rat CIA disease model. Kind of experiment: Rat CIA disease model. Type of experiment: in vivo. As to conditions: rats, 10 and 25 mg/kg PO BID, 50 mg/kg QD from Day 11 after immunization; FIG. 5. On the procedure: CIA was elicited in rats according to Rosloniec, E. F., et al., Curr Protoc Immunol Chapter 15: Unit 15, pp. 11-25. Here, Lewis rats (150-200 g, female; Charles River Laboratories, Wilmington, Mass.) were injected intradermally at the base of the tail with a total of 300 μl of a 1:1 emulsion of bovine type II collagen (CII; 150 μg total; Sigma-Aldrich) and incomplete Freund's adjuvant (IFA; 150 μl total; Sigma-Aldrich), followed by a repeat booster injection of the same emulsion 7 days after the primary immunization. Rats were monitored for signs of arthritis by clinical scoring (visual observation) of each rat paw, using the rating scale described above. The extent of swelling was calculated by subtracting the baseline values of the first measurement from the values of subsequent measurements.

The mark [2] stands for this setting: 1 μM ATP, read-out: IC50 (μM) 1 μM ATP.
[3] abbreviates: 50 μM ATP, read-out: IC50 (μM) 50 μM ATP.

For the compound `N#CC1(c2ccc(-c3cnc(N)c(-c4ccc5c(c4)CCNC5=O)n3)cc2)CC1` [1-(4-(5-amino-6-(1-oxo-1,2,3,4-tetrahydroisoquinolin-6-yl)pyrazin-2-yl)phenyl)cyclopropanecarbonitrile], the values for the IC50 on MST1 (setting [2]) and at MST1 (setting [3]) were less than 0.05 µM and less than 0.01 µM, respectively. For the same compound, the “severity of clinical score” value in the experiment on rat EAE model (rats, 0.3, 1, 3 or 10 mg/kg PO QD from Day 10 after immunization, FIG. 7A) is recorded as “dose-dependent reduction in severity of clinical score”. Moreover, the “TNF-α, IL-6, MCP-1, IFN-γ, ALT and AST” value in experiment [1] (mice, 1, 3, 10, 30 mg/kg PO 16 h and 1 h before and 8 h after Con-A challenge, FIG. 8) is “clear effect”.

On to `CN(C1CC1)S(=O)(=O)c1ccc(-c2cnc(N)c(-c3ccc4c(c3)CCNC4=O)n2)cc1` [4-(5-amino-6-(1-oxo-1,2,3,4-tetrahydroisoquinolin-6-yl)pyrazin-2-yl)-N-cyclopropyl-N-methylbenzenesulfonamide], for which the IC50 at MST1 (setting [2]) and at MST1 (setting [3]) was less than 0.01 µM throughout. Moreover, the clinical score entry in the experiment on mouse EAE model is “clear dose-dependency in clinical score”.

As for `CN(C1CC1)S(=O)(=O)c1ccc(-c2cnc(N)c(-c3ccc4c(c3)CCNC4=O)c2)cc1` [4-(6-amino-5-(1-oxo-1,2,3,4-tetrahydroisoquinolin-6-yl)pyridin-3-yl)-N-cyclopropyl-N-methylbenzenesulfonamide], the IC50 at MST1 (setting [2]) and at MST1 (setting [3]) was less than 0.01 µM in each case. Moreover, in the experiment on rat EAE model (rats, 10, 25 or 50 mg/kg PO BID from Day 9 after immunization, FIG. 3), the “severity of clinical score” value is reported as “dose-dependent reduction in severity of clinical score”. Moreover, the “cumulative arthritis score and change in ankle thickness” value with mouse CIA disease model was “clear benefit versus control”; with rat CIA disease model it was “therapeutic effect”. Further, the “TNF-α, IL-6, MCP-1, IFN-γ, ALT and AST” value in experiment [1] (mice, 10, 30, 100 mg/kg dosed 16 h and 1 h before and 8 h after Con-A challenge, FIG. 6) is “clear effect”.

A word on the IC50: it is the point on the concentration scale where inhibition reaches its midpoint.
